{"source": "patent US12576093B2", "about": "“Pharmaceutical composition for subcutaneous administration” (MANNKIND CORPORATION, priority 2019, dated 2026)", "key": {"[1]": {"conditions": "oral; cited from earlier work"}, "[2]": {"experiment": "Pharmacokinetics after 24-hour subcutaneous infusion via fluid delivery device in male Beagle dogs (plasma, LC-MS/MS)", "conditions": "for AUC(0-t): AUClast; for MRT last: MRTlast"}, "[3]": {"conditions": "Group 1, SC infusion 40 mg/animal, individual animals"}, "[4]": {"conditions": "SC infusion 76 mg/animal, individual animals"}, "[5]": {"conditions": "dogs, 40 mg/24 h and 76 mg/24 h SC infusion, both dosages"}, "[6]": {"conditions": "male, Beagle, dog, in vivo, sc, 3.21 mg/kg, Group 1, SC infusion, dose 3.21 mg/kg, mean"}, "[7]": {"conditions": "male, Beagle, dog, in vivo, sc, 5.45 mg/kg, Group 2, SC infusion, dose 5.45 mg/kg, mean"}, "[8]": {"conditions": "male, Beagle, dog, in vivo, sc, 40 mg, Group 1, SC infusion 40 mg/animal, mean"}, "[9]": {"conditions": "male, Beagle, dog, in vivo, sc, 40 mg/animal, Plasma concentration of CBD, Group 1, SC infusion 40 mg/animal, individual animals, BLOQ = below 1 ng/mL"}, "[10]": {"conditions": "male, Beagle, dog, in vivo, sc, 40 mg/animal, Plasma concentration of CBD, Group 1, SC infusion 40 mg/animal, mean (BLOQ samples excluded)"}, "[11]": {"conditions": "male, Beagle, dog, in vivo, sc, 76 mg, SC infusion 76 mg/animal, mean"}, "[12]": {"conditions": "male, Beagle, dog, in vivo, sc, 76 mg/animal, Plasma concentration of CBD, SC infusion 76 mg/animal, individual animals, BLOQ = below 1 ng/mL"}, "[13]": {"conditions": "male, Beagle, dog, in vivo, sc, 76 mg/animal, Plasma concentration of CBD, SC infusion 76 mg/animal, mean (BLOQ samples excluded)"}}, "note": "Where “and” joins values, the source holds several entries; their conditions need not be identical. Identical values can stand only once."}
{"smiles": "C=C(C)[C@@H]1CCC(C)=C[C@H]1c1c(O)cc(CCCCC)cc1O", "note": "[CBD, Cannabidiol]", "values": [{"measurement": "Fraction lost in the liver through the digestion", "setting": "[1]", "value": "approximately 94%"}, {"measurement": "AUClast", "setting": "[2]; [3]", "value": "363 ng·h/mL and 19.9 ng·h/mL and 127 ng·h/mL and 371 ng·h/mL"}, {"measurement": "Cmax", "setting": "[2]; [3]", "value": "14.2 ng/mL (2×) and 5.34 ng/mL and 5.83 ng/mL"}, {"measurement": "MRTlast", "setting": "[2]; [3]", "value": "26.0 h and 3.61 h and 16.3 h"}, {"measurement": "tmax", "setting": "[2]; [3]", "value": "30.0 hr (3×) and 3.00 hr"}, {"measurement": "Cmax", "setting": "[2]; Group 1, SC infusion, dose 3.21 mg/kg, mean", "value": "9.92 ng(mL"}, {"measurement": "Cmax", "setting": "[2]; Group 2, SC infusion, dose 5.45 mg/kg, mean", "value": "11.7 ng(mL"}, {"measurement": "AUClast", "setting": "[2]; [4]", "value": "217 ng·h/mL and 493 ng·h/mL and 129 ng·h/mL and 372 ng·h/mL"}, {"measurement": "Cmax", "setting": "[2]; [4]", "value": "10.3 ng/mL and 17.5 ng/mL and 5.24 ng/mL and 13.6 ng/mL"}, {"measurement": "MRTlast", "setting": "[2]; [4]", "value": "30.4 h and 18.9 h and 21.5 h"}, {"measurement": "tmax", "setting": "[2]; [4]", "value": "24.0 hr (2×) and 2.00 hr and 18.0 hr"}, {"measurement": "Absorption: first detection of CBD levels in blood", "setting": "[2]; [5]", "value": "detected within an hour of the beginning of infusion"}, {"measurement": "Elimination: CBD detectability after end of infusion", "setting": "[2]; [5]", "value": "still detectable 24 h after completion of fluid delivery device infusion"}, {"measurement": "Constancy of CBD concentration in the blood", "setting": "[2]; group 1 (40 mg CBD/animal) and group 2 (76 mg CBD/animal), FIGS. 24 and 25", "value": "constant concentration of CBD in the blood with a minimal variation is reached after few hours"}, {"measurement": "AUC(0-t)", "setting": "[2]; [6]", "value": 221, "unit": "ng·h/mL"}, {"measurement": "MRT last", "setting": "[2]; [6]", "value": 17.6, "unit": "h"}, {"measurement": "tmax", "setting": "[2]; male, Beagle, dog, in vivo, sc, 3.21 mg/kg, Tmax, Group 1, SC infusion, dose 3.21 mg/kg, mean", "value": 23.3, "unit": "h"}, {"measurement": "AUC(0-t)", "setting": "[2]; [7]", "value": 303, "unit": "ng·h/mL"}, {"measurement": "MRT last", "setting": "[2]; [7]", "value": 24.3, "unit": "h"}, {"measurement": "tmax", "setting": "[2]; male, Beagle, dog, in vivo, sc, 5.45 mg/kg, Tmax, Group 2, SC infusion, dose 5.45 mg/kg, mean", "value": 17, "unit": "h"}, {"measurement": "AUC(0-t)", "setting": "[2]; [8]", "value": 221, "unit": "ng·h/mL"}, {"measurement": "Cmax", "setting": "[2]; male, Beagle, dog, in vivo, sc, 40 mg, Cmax, Group 1, SC infusion 40 mg/animal, mean", "value": 9.92, "unit": "ng/mL"}, {"measurement": "MRT last", "setting": "[2]; [8]", "value": 17.6, "unit": "h"}, {"measurement": "tmax", "setting": "[2]; male, Beagle, dog, in vivo, sc, 40 mg, tmax, Group 1, SC infusion 40 mg/animal, mean", "value": 23.3, "unit": "h"}, {"measurement": "concentration at 0.083 h", "setting": "[2]; male, Beagle, dog, in vivo, sc, 40 mg/animal, Plasma concentration of CBD, Group 1, SC infusion 40 mg/animal, 0.083 hr, individual animals, BLOQ = below 1 ng/mL", "value": 5.76, "unit": "ng/mL"}, {"measurement": "concentration at 0.5 h", "setting": "[2]; male, Beagle, dog, in vivo, sc, 40 mg/animal, Plasma concentration of CBD, Group 1, SC infusion 40 mg/animal, 0.5 hr, mean (BLOQ samples excluded)", "value": 3.28, "unit": "ng/mL"}, {"measurement": "concentration at 0.75 h", "setting": "[2]; [9]", "value": 2.83, "unit": "ng/mL"}, {"measurement": "concentration at 0.75 h", "setting": "[2]; [10]", "value": 2.45, "unit": "ng/mL"}, {"measurement": "concentration at 1 h", "setting": "[2]; [10]", "value": 2.63, "unit": "ng/mL"}, {"measurement": "concentration at 2 h", "setting": "[2]; [10]", "value": 3.72, "unit": "ng/mL"}, {"measurement": "concentration at 3 h", "setting": "[2]; [10]", "value": 7.36, "unit": "ng/mL"}, {"measurement": "concentration at 4 h", "setting": "[2]; [10]", "value": 4.1, "unit": "ng/mL"}, {"measurement": "concentration at 5 h", "setting": "[2]; [10]", "value": 5.11, "unit": "ng/mL"}, {"measurement": "concentration at 6 h", "setting": "[2]; [10]", "value": 6.12, "unit": "ng/mL"}, {"measurement": "concentration at 7 h", "setting": "[2]; [10]", "value": 5.53, "unit": "ng/mL"}, {"measurement": "concentration at 8 h", "setting": "[2]; [9]", "value": 5.06, "unit": "ng/mL"}, {"measurement": "concentration at 8 h", "setting": "[2]; [10]", "value": 6.03, "unit": "ng/mL"}, {"measurement": "concentration at 10 h", "setting": "[2]; [10]", "value": 5.92, "unit": "ng/mL"}, {"measurement": "concentration at 12 h", "setting": "[2]; [9]", "value": 4.47, "unit": "ng/mL"}, {"measurement": "concentration at 12 h", "setting": "[2]; [10]", "value": 5.12, "unit": "ng/mL"}, {"measurement": "concentration at 18 h", "setting": "[2]; [9]", "value": 3.31, "unit": "ng/mL"}, {"measurement": "concentration at 24 h", "setting": "[2]; [9]", "value": 9.48, "unit": "ng/mL"}, {"measurement": "concentration at 24 h", "setting": "[2]; [10]", "value": 8.82, "unit": "ng/mL"}, {"measurement": "concentration at 30 h", "setting": "[2]; [10]", "value": 11.4, "unit": "ng/mL"}, {"measurement": "concentration at 36 h", "setting": "[2]; male, Beagle, dog, in vivo, sc, 40 mg/animal, Plasma concentration of CBD, Group 1, SC infusion 40 mg/animal, 36 hr, individual animals, BLOQ = below 1 ng/mL", "value": 9.05, "unit": "ng/mL"}, {"measurement": "concentration at 36 h", "setting": "[2]; male, Beagle, dog, in vivo, sc, 40 mg/animal, Plasma concentration of CBD, Group 1, SC infusion 40 mg/animal, 36 hr, mean (BLOQ samples excluded)", "value": 7.59, "unit": "ng/mL"}, {"measurement": "concentration at 48 h", "setting": "[2]; male, Beagle, dog, in vivo, sc, 40 mg/animal, Plasma concentration of CBD, Group 1, SC infusion 40 mg/animal, 48 hr, individual animals, BLOQ = below 1 ng/mL", "value": 4.2, "unit": "ng/mL"}, {"measurement": "concentration at 48 h", "setting": "[2]; male, Beagle, dog, in vivo, sc, 40 mg/animal, Plasma concentration of CBD, Group 1, SC infusion 40 mg/animal, 48 hr, mean (BLOQ samples excluded)", "value": 5.15, "unit": "ng/mL"}, {"measurement": "AUC(0-t)", "setting": "[2]; [11]", "value": 303, "unit": "ng·h/mL"}, {"measurement": "Cmax", "setting": "[2]; male, Beagle, dog, in vivo, sc, 76 mg, Cmax, SC infusion 76 mg/animal, mean", "value": 11.7, "unit": "ng/mL"}, {"measurement": "MRT last", "setting": "[2]; male, Beagle, dog, in vivo, sc, 76 mg, SC infusion 76 mg/animal, individual animals", "value": 26.5, "unit": "h"}, {"measurement": "MRT last", "setting": "[2]; [11]", "value": 24.3, "unit": "h"}, {"measurement": "tmax", "setting": "[2]; male, Beagle, dog, in vivo, sc, 76 mg, tmax, SC infusion 76 mg/animal, mean", "value": 17, "unit": "h"}, {"measurement": "concentration at 1 h", "setting": "[2]; [12]", "value": 3.73, "unit": "ng/mL"}, {"measurement": "concentration at 1 h", "setting": "[2]; [13]", "value": 5.31, "unit": "ng/mL"}, {"measurement": "concentration at 2 h", "setting": "[2]; [12]", "value": 3.69, "unit": "ng/mL"}, {"measurement": "concentration at 2 h", "setting": "[2]; [13]", "value": 4.97, "unit": "ng/mL"}, {"measurement": "concentration at 3 h", "setting": "[2]; [13]", "value": 4.38, "unit": "ng/mL"}, {"measurement": "concentration at 4 h", "setting": "[2]; [13]", "value": 3.31, "unit": "ng/mL"}, {"measurement": "concentration at 5 h", "setting": "[2]; [12]", "value": 2.42, "unit": "ng/mL"}, {"measurement": "concentration at 5 h", "setting": "[2]; [13]", "value": 2.17, "unit": "ng/mL"}, {"measurement": "concentration at 6 h", "setting": "[2]; [13]", "value": 5.35, "unit": "ng/mL"}, {"measurement": "concentration at 7 h", "setting": "[2]; [13]", "value": 4.78, "unit": "ng/mL"}, {"measurement": "concentration at 8 h", "setting": "[2]; [13]", "value": 5.14, "unit": "ng/mL"}, {"measurement": "concentration at 10 h", "setting": "[2]; [13]", "value": 4.19, "unit": "ng/mL"}, {"measurement": "concentration at 12 h", "setting": "[2]; [13]", "value": 6.03, "unit": "ng/mL"}, {"measurement": "concentration at 18 h", "setting": "[2]; [13]", "value": 5.93, "unit": "ng/mL"}, {"measurement": "concentration at 24 h", "setting": "[2]; [13]", "value": 9.68, "unit": "ng/mL"}, {"measurement": "concentration at 30 h", "setting": "[2]; [13]", "value": 9.04, "unit": "ng/mL"}, {"measurement": "concentration at 36 hr", "setting": "[2]; male, Beagle, dog, in vivo, sc, 76 mg/animal, Plasma concentration of CBD, SC infusion 76 mg/animal, 36 hr, mean (BLOQ samples excluded)", "value": 6.04, "unit": "ng/mL"}, {"measurement": "concentration at 48 hr", "setting": "[2]; male, Beagle, dog, in vivo, sc, 76 mg/animal, Plasma concentration of CBD, SC infusion 76 mg/animal, 48 hr, mean (BLOQ samples excluded)", "value": 8.32, "unit": "ng/mL"}]}
